What all share (type): cell-based
The subject of assay [1] is human induced pluripotent stem cell derived microglia (iPSdM-1). The assay can be described thus: Half maximum effective concentration for reduction of LPS-induced TNF-α gene transcript. The note with it: LPS 1 μg/ml, 24 hours. As for the experimental part:
Human induced pluripotent stem cell derived microglia (iPSdM) were obtained from iPS cells. iPSdM-1 line was used in this study generated from the iLB-C-35m-r1 clone (Bonn). iPSdM-1 (here named microglia or microglial cells) were culture in N2-medium consisting of DMEM/F12 culture medium (Gibco) supplemented with 1% N2 (Invitrogen), 0.48 mM L-glutamine (Gibco) and 100 μg/ml penicillin/streptomycin (Gibco). Cells were cultured with high density and split 1:5. After splitting, cells recovered and attached again to the new dishes.
Cells were treated for 24 hours with 1 μg/ml lipopolysaccharides (LPS) and 5 nM, 15 nM, 50 nM, 150 nM, 500 nM, 1.5 μM, 5 μM, 15 μM, 50 μM or 150 μM of PSA-20. For gene transcript analysis of TNF-α, RNA was collected from cells via the RNeasy kit system (Quiagen) Reverse transcription of the RNA was performed using Super Script II reverse transcriptase (Life Technologies) and hexamer random primers (Roche). Quantitative RT-PCR with specific oligonucleotides was performed with SYBR Green PCR Master Mix (Qiagen) using the ABI 5700 Sequence Detection System (PerkinElmer). The qRT-PCR was running for 40 cycles with a Tm of 60° C. using the same primer as for the PCR. The […] method with GAPDH as internal standard was performed for qRT-PCR quantification.

A further assay deals with human microglia. The assay can be described thus: Microglial phagocytosis of fluorescently labeled neural debris. The note with it: 1 hour pre-incubation, untreated 32%+/−0.02. How it is done: The human microglia were challenged with fluorescently labeled neural debris and the uptake of the debris into the cells was determined by confocal microscopy and 3D-reconstruction.
To receive debris, neural stem cells were incubated with 40 nM okadaic acid (Sigma) for 24 hours. Then, cellular debris was collected and centrifuged. Debris was washed with PBS and stained with “Dil Derivatives for Long-Term Cellular Labeling” Molecular Probes (Invitrogen) according to the supplier's manual. Microglial cells were pre-incubated for 1 hour with concentration of 0.15 μM, 0.5 μM or 1.5 μM PSA-20 followed by 1 hour of incubation with 5 μg/ml prestained neural debris. Cells were fixed and incubated with an anti-iba1 antibody (Wako, Japan) followed by a secondary Alexa488-conjugated antibody (Molecular probes). For analysis images were randomly scanned and 3D-reconstructions were obtained by a confocal laser scanning microscope (Fluoview 1000, Olympus). To determine the ratio of cells having ingested fluorescently labeled material, six images per experiment group were obtained and all cells on the images were quantified using Image J software (NIH).

Assay [2] concerns LPS-activated human microglia. The assay can be described thus: LPS-induced TNF-alpha gene transcription in human microglia (qRT-PCR). The note with it: LPS 1 μg/ml, 24 hours. As for the experimental part:
To analyse whether polysialic acid might interfere with a pro-inflammatory phenotype of human microglia, cultured human microglia were activated with lipopolysaccharides (LPS) and the effect of the distinct sialic acid forms including fractions of oligosialic and polysialic acid on the gene transcription of the pro-inflammatory cytokine tumor necrosis factor-alpha induced by the bacterial toxin LPS was determined. A human microglial line derived from induced pluripotent stem cells as described in WO 2010/125110 was used to study the effect of sialic acid forms with different chain length. Human microglial cells were cultured on 5 μg/ml poly-L-lysin (PLL, Sigma)-coated dishes in N2-medium containing DMEM/F12 culture medium (Gibco) supplemented with 1% N2 (Invitrogen), 0.48 mM L-glutamine (Gibco) and optionally 100 μg/ml penicillin/streptomycin (Gibco). Cells were cultured with high density and splitted 1:2 when required. The human induced pluripotent stem cell derived microglia line was treated with lipopolysaccharides (LPS, 1 μg/ml, Invivogen) and sialic acid forms with different chain length for 24 hours. Gene transcripts for tumor necrosis factor-α (TNF-alpha) were determined by quantitative RT-PCR and normalized to GAPDH. In detail, RNA isolation was performed using RNeasy Mini Kit (Qiagen) and transcription with the SuperScript First-Strand Synthesis System (Invitrogen). Quantitative RT-PCR with specific oligonucleotides (GAPDH: […] (SEQ ID NO: 1) and […] (SEQ ID NO: 2); TNFα: […] (SEQ ID NO: 3) and […] (SEQ ID NO: 4)) was performed using SYBR green PCR Master Mix with the Mastercycler epgradients S (Eppendorf). Results were normalized to GAPDH. Quantification using the delta-CT method was carried out.
For orientation: Real-time PCR tracks product formation cycle by cycle.

pEC50: −log10 of the molar value.

Usually pEC50 stands for the negative decadic logarithm of the EC50, by convention in mol/L.

Regarding poly-(α(2→8)Neu5Ac)n [PSA-20], the “concentration reducing the LPS-induced gene transcription of TNF-α” value in assay [1] (FIG. 10B) is ≥ 0.05 µM. Besides, the pEC50 in assay [1] (read-out: EC50 in human microglia (reduction of LPS-induced TNF-α gene transcript by 50%)) was 7.05. For the same substance, the “percentage of microglia having ingested neural debris” value is 25%+/−0.02 in the assay with human microglia (0.5 μM) and 22%+/−0.01 with human microglia (1.5 μM). In addition, in assay [2] (0.15 μM, 0.5 μM and 1.5 μM, FIG. 3), the “LPS-induced gene transcription of TNF-alpha” value is “reduced”. Also, in assay [2] (summary of Example 4), the “Anti-inflammatory effect on TNF-alpha of LPS-activated human microglia” value is listed as “Yes”.

(Values after patent publication US9944721B2, “Polysialic acid and use for treatment of neurodegenerative and neuroinflammatory diseases” (RHEINISCHE FRIEDRICH-WILHELMS UNIVERSITÄT BONN, priority 2013, dated 2018).)
